# Source: patent US20060141496A1, “Method of screening substance interacting with ABC protein” (priority 2003, published 2006)
# Target: T1, human MRP2 (Homo sapiens, UniProt Q92887)
# T1 construct: made in house; host or cells: Sf9 insect cells (baculovirus, pFASTBac1)
# Assay: [3H] ADP binding amount by vanadate method, human MRP2-expressing Sf9 membrane
# Assay type: biochemical
# Conditions: substrate 0.1 mM; reaction time 5 minutes; 37° C.; FIG. 6
# T1 sequence (Q92887 whole entry): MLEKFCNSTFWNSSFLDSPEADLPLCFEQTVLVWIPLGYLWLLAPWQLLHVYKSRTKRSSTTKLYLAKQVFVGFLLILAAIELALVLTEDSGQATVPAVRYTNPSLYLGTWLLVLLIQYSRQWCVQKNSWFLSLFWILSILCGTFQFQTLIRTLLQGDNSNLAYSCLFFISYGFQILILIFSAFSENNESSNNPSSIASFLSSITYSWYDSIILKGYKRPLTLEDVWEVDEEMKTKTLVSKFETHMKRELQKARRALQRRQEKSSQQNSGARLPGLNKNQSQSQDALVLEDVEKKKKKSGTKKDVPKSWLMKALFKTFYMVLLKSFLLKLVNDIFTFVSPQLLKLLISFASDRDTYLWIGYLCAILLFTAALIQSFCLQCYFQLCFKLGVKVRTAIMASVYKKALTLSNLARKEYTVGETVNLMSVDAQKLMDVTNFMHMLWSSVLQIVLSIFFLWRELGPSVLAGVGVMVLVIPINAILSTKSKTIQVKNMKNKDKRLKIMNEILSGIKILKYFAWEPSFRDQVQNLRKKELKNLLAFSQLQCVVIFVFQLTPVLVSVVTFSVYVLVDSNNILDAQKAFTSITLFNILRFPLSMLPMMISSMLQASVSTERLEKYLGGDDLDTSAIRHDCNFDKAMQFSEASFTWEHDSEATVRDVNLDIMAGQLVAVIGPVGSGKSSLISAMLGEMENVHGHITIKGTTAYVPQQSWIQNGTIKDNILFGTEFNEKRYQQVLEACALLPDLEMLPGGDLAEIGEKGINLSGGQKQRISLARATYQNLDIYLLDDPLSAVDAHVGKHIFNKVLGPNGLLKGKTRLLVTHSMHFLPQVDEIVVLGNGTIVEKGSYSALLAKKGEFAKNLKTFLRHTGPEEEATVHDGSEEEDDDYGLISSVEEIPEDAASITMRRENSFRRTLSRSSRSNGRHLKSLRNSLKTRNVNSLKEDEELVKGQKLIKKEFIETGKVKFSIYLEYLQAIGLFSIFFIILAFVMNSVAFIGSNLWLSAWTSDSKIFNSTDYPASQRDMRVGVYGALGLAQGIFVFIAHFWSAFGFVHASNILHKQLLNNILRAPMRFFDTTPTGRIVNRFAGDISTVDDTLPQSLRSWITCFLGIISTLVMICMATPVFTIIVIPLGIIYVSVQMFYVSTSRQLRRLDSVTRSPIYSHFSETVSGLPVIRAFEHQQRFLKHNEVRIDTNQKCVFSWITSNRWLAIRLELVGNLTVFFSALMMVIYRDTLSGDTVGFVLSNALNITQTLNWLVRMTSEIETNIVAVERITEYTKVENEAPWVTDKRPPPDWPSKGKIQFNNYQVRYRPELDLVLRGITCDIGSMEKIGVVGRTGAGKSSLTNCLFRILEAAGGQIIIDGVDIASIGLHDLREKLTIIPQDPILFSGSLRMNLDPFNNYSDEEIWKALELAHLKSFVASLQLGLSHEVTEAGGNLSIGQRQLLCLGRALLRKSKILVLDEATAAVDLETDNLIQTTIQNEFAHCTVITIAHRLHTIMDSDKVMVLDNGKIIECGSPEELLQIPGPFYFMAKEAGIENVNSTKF
row,Compound,[3H] ADP binding activity compared to MRP2-expressing membranes without substrate
1,O=C1OC(c2ccc(O)c(S(=O)(=O)O)c2)(c2ccc(O)c(S(=O)(=O)O)c2)c2c(Br)c(Br)c(Br)c(Br)c21 [Bromosulfalein],increase of significant [^3H] ADP binding activity
2,β-estradiol-17-(β-D-glucuronide) [β-estradiol-17 (β-D-glucuronide)],increase of significant [^3H] ADP binding activity

# Target: T2, human P-glycoprotein (Pgp or MDR 1) expressing membrane (Homo sapiens, UniProt P08183)
# T2 construct: purchased Daiichi Pure Chemicals Co. No. 453228; host or cells: Sf9 insect cell membrane
# Assay: [3H] ADP binding amount by vanadate method, suction cleaning on 96-well glass filter, P-glycoprotein-expressing membrane
# Assay type: biochemical
# Conditions: substrate 0.05 mM; reaction time 5 minutes; 37° C.; background of control membrane subtracted; FIG. 4
# T2 sequence (P08183 whole entry): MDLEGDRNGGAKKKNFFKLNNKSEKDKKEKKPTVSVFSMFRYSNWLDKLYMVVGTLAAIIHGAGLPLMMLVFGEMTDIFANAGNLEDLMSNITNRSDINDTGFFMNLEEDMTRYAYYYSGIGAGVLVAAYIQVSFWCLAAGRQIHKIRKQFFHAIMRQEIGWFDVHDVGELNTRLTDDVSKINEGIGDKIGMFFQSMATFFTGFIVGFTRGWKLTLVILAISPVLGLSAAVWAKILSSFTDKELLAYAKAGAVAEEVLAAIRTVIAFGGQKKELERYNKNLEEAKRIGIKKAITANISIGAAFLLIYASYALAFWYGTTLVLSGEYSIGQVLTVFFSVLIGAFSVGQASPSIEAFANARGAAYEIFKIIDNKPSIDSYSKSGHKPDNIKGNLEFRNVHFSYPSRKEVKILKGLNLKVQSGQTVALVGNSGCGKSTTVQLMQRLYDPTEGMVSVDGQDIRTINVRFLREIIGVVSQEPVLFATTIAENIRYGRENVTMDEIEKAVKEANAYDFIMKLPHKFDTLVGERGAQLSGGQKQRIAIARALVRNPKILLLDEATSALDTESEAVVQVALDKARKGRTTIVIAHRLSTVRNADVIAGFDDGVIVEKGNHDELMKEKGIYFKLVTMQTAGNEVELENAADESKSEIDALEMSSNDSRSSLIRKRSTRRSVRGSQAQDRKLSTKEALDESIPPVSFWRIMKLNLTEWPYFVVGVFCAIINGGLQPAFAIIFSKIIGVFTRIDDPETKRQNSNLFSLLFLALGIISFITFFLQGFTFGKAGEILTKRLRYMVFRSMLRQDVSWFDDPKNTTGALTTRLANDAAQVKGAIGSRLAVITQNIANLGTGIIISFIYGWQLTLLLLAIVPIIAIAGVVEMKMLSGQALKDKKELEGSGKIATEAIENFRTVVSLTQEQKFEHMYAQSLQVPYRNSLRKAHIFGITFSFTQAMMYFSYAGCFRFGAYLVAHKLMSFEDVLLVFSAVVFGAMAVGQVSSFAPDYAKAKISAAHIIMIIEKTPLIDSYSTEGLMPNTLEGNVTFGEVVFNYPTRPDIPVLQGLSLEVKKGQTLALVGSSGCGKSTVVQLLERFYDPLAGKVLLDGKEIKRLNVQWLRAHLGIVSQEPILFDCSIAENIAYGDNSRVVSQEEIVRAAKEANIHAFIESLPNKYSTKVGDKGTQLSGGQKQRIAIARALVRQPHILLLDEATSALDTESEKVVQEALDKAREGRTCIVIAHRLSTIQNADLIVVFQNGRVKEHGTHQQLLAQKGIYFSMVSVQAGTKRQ
row,Compound,[3H] ADP binding activity compared to P-glycoprotein-expressing membrane without substrate
1,O=C1OC(c2ccc(O)c(S(=O)(=O)O)c2)(c2ccc(O)c(S(=O)(=O)O)c2)c2c(Br)c(Br)c(Br)c(Br)c21 [Bromosulfalein],lowered significantly
2,COc1cccc2c1C(=O)c1c(O)c3c(c(O)c1C2=O)C[C@@](O)(C(C)=O)C[C@@H]3O[C@H]1C[C@H](N)[C@H](O)[C@H](C)O1 [Daunorubicin],significant increase
3,COc1cccc2c1C(=O)c1c(O)c3c(c(O)c1C2=O)C[C@@](O)(C(=O)CO)C[C@@H]3O[C@H]1C[C@H](N)[C@H](O)[C@H](C)O1 [Doxorubicin],significant increase
4,Nc1nc2ncc(CNc3ccc(C(=O)N[C@@H](CCC(=O)O)C(=O)O)cc3)nc2c(=O)[nH]1 [Folate],significant increase
5,CN(Cc1cnc2nc(N)nc(N)c2n1)c1ccc(C(=O)N[C@@H](CCC(=O)O)C(=O)O)cc1 [Methotrexate],significant increase
6,CC[C@]1(O)C[C@@H]2CN(CCc3c([nH]c4ccccc34)[C@@](C(=O)OC)(c3cc4c(cc3OC)N(C)[C@H]3[C@@](O)(C(=O)OC)[C@H](OC(C)=O)[C@]5(CC)C=CCN6CC[C@]43[C@@H]65)C2)C1 [Vinbrastine],significant increase
7,CC[C@]1(O)C[C@H]2CN(CCc3c([nH]c4ccccc34)[C@@](C(=O)OC)(c3cc4c(cc3OC)N(C=O)[C@H]3[C@@](O)(C(=O)OC)[C@H](OC(C)=O)[C@]5(CC)C=CCN6CC[C@]43[C@@H]65)C2)C1 [Vincristine],significant increase
